Data reported in patent US8742068B2, “Treatment and prevention of inflammatory diseases and autoimmune diseases” (Universiteit Utrecht Holding B.V., priority 2007, dated 2014).

Legend:
DSS colitis [1] = assay: DSS colitis, peroral treatment (Prague study, 1st part, Example 3); format: in vivo, BALB/c mice
Procedure: (§1) Fifteen conventional female Balb/c female mice (7 to 9 weeks old) were randomly separated in […] (five mice each). To evaluate the efficacy of per oral treatment, the antigens (full length Mycobacterial HSP70 protein) were administered together with 1 mg of Soybean trypsin inhibitor (SBTI, Sigma) dissolved in 50 μl of 0.15 M sodium bicarbonate, by gavage 4 times in one week interval. After one week the mice received 3% dextran sodium sulfate (DSS) in their drinking water continuously for up to 7 days. Colitis was evaluated on day 35 by a clinical activity score, by colon length and histological score.
• treated: 100 μl of sterile PBS/SBTI intragastrically (Control group) Group B1 (HSP60+DSS): • treated: HSP60 30 μg/mouse in 100 μl of sterile PBS/SBTI (1:1) intragastrically Group C1 (HSP70+DSS): • treated: HSP70 30 μg/mouse in 100 μl of sterile PBS/SBTI (1:1) intragastrically Results

adjuvant arthritis = conditions: in vivo; cited from earlier work
DSS colitis [2] = assay: DSS colitis (Utrecht study, Example 5); format: in vivo, BALB/c mice; conditions: for Colon Length (cm), average: 4 x 30 μg oral gavage, 3% DSS 7 days, n=10
Procedure: This study is performed with female BALB/c mice aged 7 weeks at the start of the experiment. Groups of mice (n=10) were treated 4 times (days 7, 9, 11, 14) with 30 μg HSP70 in 100 μl PBS (Mt hsp70; batch 031205; 2.1 Endotoxin Units/mg) or vehicle (100 μl PBS), administered via oral gavage. 10 minutes prior to gavage animals received 2 mg soybean trypsin inhibitor (SBTI) in 0.15M sodium bicarbonate, pH 8.0. Colitis was induced by administering drinking water supplemented with 3% DSS during 7 days.
Disease onset was followed by determination of body weight and stool consistency, resulting in clinical state as explained in the table below.
At dissection, colon length was recorded
Colons were cut longitudinally and divided into parts to determine: • histology on formalin-fixed paraffin sections • MPO activity in homogenates (indicative for neutrophilic infiltrations) • Ex-vivo cytokine release (TNFα, IL10) from distal colon sample.
Total score is calculated by the adding the score for each parameter and divided by 3.
Distal colon samples were incubated for 24 h and IL10 content in supernatant was measured using a specific ELISA. IL10 release from distal colon sample in healthy BALB/c mice is 450±328 pg/g colon.

TNBS-induced colitis = assay: TNBS colitis (Example 6); format: in vivo, BALB/c mice
Procedure: Female BALB/c mice (Charles River-Germany), 10-12 weeks of age at start of the experiment, were either treated intragastrically or intranasally with full HSP70 [SEQ ID NO: 55] or HSP70 peptides (Mycobacterial HSP70 derived peptide “C1” shown in SEQ ID NO: 3 and mouse homologue peptide “mC1a” of SEQ ID NO: 4) prior to disease induction. Mice received 4×30 μg HSP70 intragastrically, in a period of 4 weeks. Stomach contents were neutralized by administering soybean trypsin inhibitor (SBTI) 10 minutes prior to oral HSP70 administration.
Intranasal treatment was performed with 4×30 μg HSP70 or 4×(67 μg peptide C1 (Mycobacterial tub. HSP70 peptide 141-155, VLRIVNEPTAAALAY) mixed with 33 μg peptide mC1a (=mouse Grp75 (hspa9) peptide 216-230, […])), in a period of 1 week.
Next, mice were sensitized by painting the shaved abdomen with 1 mg of TNBS in 100 μl 50% ethanol on two consecutive days, followed by a rectal challenge with 1 mg TNBS in 100 μl 40% ethanol, after 6 days. Mice were dissected 3 days later, and colonic inflammation was determined based on colon length, weight and morphology. Furthermore, cytokine production within colon and draining caudal lymph nodes (CLN) were determined.
• A. Oral PBS, sensitization TNBS, challenge TNBS (control group) • B. Oral (full length) HSP70, sensitization TNBS, challenge TNBS (oral group) • C. […]

DSS colitis [3] = assay: DSS colitis, peroral treatment (Prague study, 2nd part, Example 4); format: in vivo, BALB/c mice
Procedure: as §1, with “sodium sulphate” for “sodium sulfate”, “to 8” for “to 7”, “day 36” for “day 35”
• treated: 100 μl of sterile PBS/SBTI intragastrically (Control) Group B2 (HSP60+DSS): • treated: HSP60 30 μg/mouse in 100 μl of sterile PBS/SBTI (1:1) intragastrically Group C2 (HSP70+DSS): • treated: HSP70 30 μg/mouse in 100 μl of sterile PBS/SBTI (1:1) intragastrically Results

[4] = 30 μg/mouse intragastrically with SBTI, 4 times before 3% DSS, 5 mice
[5] = Multiple Range Tests, * p < 0.05

Substance: HSP70: full length Mycobacterial HSP70 protein (SEQ ID NO: 55)
- Histological grade, Average (DSS colitis [1]; [4]): 1.4
- Weight change, Average (DSS colitis [1]; [4]): −2.04
- Colon length, Average (DSS colitis [1]; 30 μg/mouse intragastrically with SBTI, 4 times in one week interval before 3% DSS, day 35, 5 mice): 6.36
- Clinical state, Difference (contrast PBS minus treatment) (DSS colitis [1]; [5]): *1.3332
- Colon length, Difference (contrast PBS minus treatment) (DSS colitis [1]; [5]): −0.2
- Histological grade, Difference (contrast PBS minus treatment) (DSS colitis [1]; [5]): *0.75
- Weight change, Difference (contrast PBS minus treatment) (DSS colitis [1]; [5]): *−6.52
- effect on colitis (DSS colitis [1]; administered orally, prophylactically (prior to disease induction)): suppressive effect on colitis
- Clinical state, Average (DSS colitis [1]; total score of weight loss, stool consistency, bleeding divided by 3, 30 μg/mouse intragastrically, 5 mice): 2.1334
- development of adjuvant arthritis (adjuvant arthritis): reduce the development of adjuvant arthritis
- Colon Length (cm), average (DSS colitis [2]): 6.8 cm
- Colon Length (cm), average (DSS colitis [2]; listed as HSP70 protein): less decreased
- disease severity (clinical score, disease progression) (DSS colitis [2]; pre-treatment 4 x 30 μg oral gavage): decreased disease severity
- IL-10 responses in the caudal lymphnodes (TNBS-induced colitis; orally given, CD3/CD28 restimulation of draining lymph node cells): elevated IL-10 responses
- effect on TNBS induced colitis (TNBS-induced colitis; prophylactically, HSP70 4x30 μg orally or intranasally, peptides 4x(67 μg C1 + 33 μg mC1a) intranasally): suppressive effect on TNBS induced colitis
- Histological grade, Average (DSS colitis [3]; [4]): 1.225
- Weight change, Average (DSS colitis [3]; [4]): −0.44
- Histological grade, Difference (contrast PBS minus treatment) (DSS colitis [3]; Multiple Range Tests): 0.35
- Colon length, Difference (contrast PBS minus treatment) (DSS colitis [3]; [5]): *−1.02
- Weight change, Difference (contrast PBS minus treatment) (DSS colitis [3]; [5]): *−4.62
- symptoms of colitis compared to PBS (DSS colitis [3]; p=0.0057, 0.0387 and 0.0831 for colon length, weight loss and clinical state): significantly mitigates the symptoms of colitis
